In patent publication US8192962B2, “Processes for detecting toxic substances” (Daikin Industries, Ltd., priority 2001, dated 2012):

System: Unknown protein yeast genes
Experiment: DNA chip mRNA expression in yeast, unknown protein yeast genes (Table 1)
Assay type: cell-based, Saccharomyces cerevisiae S288C
Protocol: Yeast (Saccharomyces cerevisiae S288C (α SUC2mal mel gap2 CUP1)) were incubated at 25° C. on YPD medium (yeast extract 1%, polypepton 2%, glucose 2%). One of toxic chemical substances was added to the cells at logarithmic growth phase, and the cells were further incubated for two hours. Cells were cultured without any chemical substance in the same condition, and were used as control. Concentrations of the chemical substances were defined to inhibit the growth of the yeast but not lead to death.
After completion of the incubation, the culture was centrifuged to collect the cells. To the cells, sodium acetate buffer (50 mM sodium acetate, 10 mM EDTA, 1% SDS) was added, and the mixture was shaken at 65° C. for five minutes, followed by returning to room temperature, and obtaining the supernatant, of which the procedures were repeated two times. To the supernatant, ½ amount of a solution of phenol/chloroform was added, and the mixture was centrifuged to give a supernatant, which was added with an equal amount of chloroform, and the mixture was centrifuged to give a supernatant. To the supernatant, an equal amount of isopropanol containing 0.3 M sodium acetate was added, and the mixture was allowed to stand at room temperature for 30 minutes, after which the mixture was centrifuged to give a sediment of the whole RNAs. Seventy % ethanol was added to the sediment, and the mixture was again centrifuged to give a sediment, which was then dried and dissolved in water. mRNA was isolated from the whole RNAs as followings. In view of the fact that a poly A chain is attached to the 3′ terminus of mRNA, a polynucleotide having a poly T structure which was immobilized on the surface of latex beads was used to trap the mRNA, and then the mRNA was washed and eluted with spine column (Oligotex-dT30<Super>mRNA Purification Kit, Takara). Reverse transcription of the mRNA was conducted with a reverse transcriptase (Super Script II Reverse Transcriptase; catalogue No. 18064-014, GibcoBRL) using fluorescence-labeled nucleotides to give cDNAs that were introduced with Cy3-dUTP or Cy5-dUTP during the reverse transcription.
The labeled cDNAs were dissolved in TE buffer (10mM Tris-HCl/1 mM EDTA, pH8.0), and the solution was dropped on the DNA chip containing the whole genes of yeast (DNA Chip Research Inc. Japan) so that the cDNAs were hybridized on the DNA chip at 65° C. for over 12 hours. The fluoresces intensity of the DNA chip was read with a scanner, and the ratio relative to the fluorescence intensity resulting from the absence of chemical substance was estimated as the following, which is shown in Tables 1 to 9: […]

[Cl][Pb][Cl] [(4), PbCl2]
The level of expressed mRNA in the presence of chemical substance/The level of expressed mRNA in the absence of chemical substance (yeast gene YKL195W, incubated two hours with chemical substance): 1.1
The level of expressed mRNA in the presence of chemical substance/The level of expressed mRNA in the absence of chemical substance (yeast gene YKR091W, incubated two hours with chemical substance): 3.5
The level of expressed mRNA in the presence of chemical substance/The level of expressed mRNA in the absence of chemical substance (yeast gene YLR054C, incubated two hours with chemical substance): 2.4
The level of expressed mRNA in the presence of chemical substance/The level of expressed mRNA in the absence of chemical substance (yeast gene YLR149C, incubated two hours with chemical substance): 2.3
The level of expressed mRNA in the presence of chemical substance/The level of expressed mRNA in the absence of chemical substance (yeast gene YLR152C, incubated two hours with chemical substance): 0.9
The level of expressed mRNA in the presence of chemical substance/The level of expressed mRNA in the absence of chemical substance (yeast gene YLR194C, incubated two hours with chemical substance): 3.6
The level of expressed mRNA in the presence of chemical substance/The level of expressed mRNA in the absence of chemical substance (yeast gene YLR324W, incubated two hours with chemical substance): 1.0
The level of expressed mRNA in the presence of chemical substance/The level of expressed mRNA in the absence of chemical substance (yeast gene YLR350W, incubated two hours with chemical substance): 2.3
The level of expressed mRNA in the presence of chemical substance/The level of expressed mRNA in the absence of chemical substance (yeast gene YLR387C, incubated two hours with chemical substance): 0.6
The level of expressed mRNA in the presence of chemical substance/The level of expressed mRNA in the absence of chemical substance (yeast gene YLR460C): 1.1
The level of expressed mRNA in the presence of chemical substance/The level of expressed mRNA in the absence of chemical substance (yeast gene YML117W, incubated two hours with chemical substance): 1.6
The level of expressed mRNA in the presence of chemical substance/The level of expressed mRNA in the absence of chemical substance (yeast gene YMR009W, incubated two hours with chemical substance): 1.9
The level of expressed mRNA in the presence of chemical substance/The level of expressed mRNA in the absence of chemical substance (yeast gene YMR067C, incubated two hours with chemical substance): 0.4
The level of expressed mRNA in the presence of chemical substance/The level of expressed mRNA in the absence of chemical substance (yeast gene YMR090W): 3.5
The level of expressed mRNA in the presence of chemical substance/The level of expressed mRNA in the absence of chemical substance (yeast gene YMR095C, incubated two hours with chemical substance): 1.0
The level of expressed mRNA in the presence of chemical substance/The level of expressed mRNA in the absence of chemical substance (yeast gene YMR097C, incubated two hours with chemical substance): 1.6
The level of expressed mRNA in the presence of chemical substance/The level of expressed mRNA in the absence of chemical substance (yeast gene YMR102C, incubated two hours with chemical substance): 0.8
The level of expressed mRNA in the presence of chemical substance/The level of expressed mRNA in the absence of chemical substance (yeast gene YMR107W, incubated two hours with chemical substance): 18.4
The level of expressed mRNA in the presence of chemical substance/The level of expressed mRNA in the absence of chemical substance (yeast gene YMR180C, incubated two hours with chemical substance): 1.3
The level of expressed mRNA in the presence of chemical substance/The level of expressed mRNA in the absence of chemical substance (yeast gene YMR184W, incubated two hours with chemical substance): 1.1
The level of expressed mRNA in the presence of chemical substance/The level of expressed mRNA in the absence of chemical substance (yeast gene YMR191W, incubated two hours with chemical substance): 1.6
The level of expressed mRNA in the presence of chemical substance/The level of expressed mRNA in the absence of chemical substance (yeast gene YMR295C, incubated two hours with chemical substance): 1.6
The level of expressed mRNA in the presence of chemical substance/The level of expressed mRNA in the absence of chemical substance (yeast gene YMR316W, incubated two hours with chemical substance): 1.9
The level of expressed mRNA in the presence of chemical substance/The level of expressed mRNA in the absence of chemical substance (yeast gene YNL044W, incubated two hours with chemical substance): 1.3
The level of expressed mRNA in the presence of chemical substance/The level of expressed mRNA in the absence of chemical substance (yeast gene YNL074C, incubated two hours with chemical substance): 1.2
The level of expressed mRNA in the presence of chemical substance/The level of expressed mRNA in the absence of chemical substance (yeast gene YNL092W, incubated two hours with chemical substance): 1.8
The level of expressed mRNA in the presence of chemical substance/The level of expressed mRNA in the absence of chemical substance (yeast gene YNL115C, incubated two hours with chemical substance): 1.4
The level of expressed mRNA in the presence of chemical substance/The level of expressed mRNA in the absence of chemical substance (yeast gene YNL156C, incubated two hours with chemical substance): 1.3
The level of expressed mRNA in the presence of chemical substance/The level of expressed mRNA in the absence of chemical substance (yeast gene YNL234W, incubated two hours with chemical substance): 1.8
The level of expressed mRNA in the presence of chemical substance/The level of expressed mRNA in the absence of chemical substance (yeast gene YNL281W, incubated two hours with chemical substance): 1.4
The level of expressed mRNA in the presence of chemical substance/The level of expressed mRNA in the absence of chemical substance (yeast gene YNL305C, incubated two hours with chemical substance): 1.4
The level of expressed mRNA in the presence of chemical substance/The level of expressed mRNA in the absence of chemical substance (yeast gene YNR068C, incubated two hours with chemical substance): 2.6
The level of expressed mRNA in the presence of chemical substance/The level of expressed mRNA in the absence of chemical substance (yeast gene YOL032W, incubated two hours with chemical substance): 1.3
The level of expressed mRNA in the presence of chemical substance/The level of expressed mRNA in the absence of chemical substance (yeast gene YOL036W, incubated two hours with chemical substance): 0.8
The level of expressed mRNA in the presence of chemical substance/The level of expressed mRNA in the absence of chemical substance (yeast gene YOL047C, incubated two hours with chemical substance): 2.5
The level of expressed mRNA in the presence of chemical substance/The level of expressed mRNA in the absence of chemical substance (yeast gene YOL071W, incubated two hours with chemical substance): 2.0
The level of expressed mRNA in the presence of chemical substance/The level of expressed mRNA in the absence of chemical substance (yeast gene YOL082W, incubated two hours with chemical substance): 2.1
The level of expressed mRNA in the presence of chemical substance/The level of expressed mRNA in the absence of chemical substance (yeast gene YOL083W, incubated two hours with chemical substance): 2.8
The level of expressed mRNA in the presence of chemical substance/The level of expressed mRNA in the absence of chemical substance (yeast gene YOL117W, incubated two hours with chemical substance): 1.4
The level of expressed mRNA in the presence of chemical substance/The level of expressed mRNA in the absence of chemical substance (yeast gene YOL131W, incubated two hours with chemical substance): 1.0
The level of expressed mRNA in the presence of chemical substance/The level of expressed mRNA in the absence of chemical substance (yeast gene YOL150C): 0.9
The level of expressed mRNA in the presence of chemical substance/The level of expressed mRNA in the absence of chemical substance (yeast gene YOL162W, incubated two hours with chemical substance): 1.4
The level of expressed mRNA in the presence of chemical substance/The level of expressed mRNA in the absence of chemical substance (yeast gene YOR019W, incubated two hours with chemical substance): 4.7
The level of expressed mRNA in the presence of chemical substance/The level of expressed mRNA in the absence of chemical substance (yeast gene YOR197W, incubated two hours with chemical substance): 1.4
The level of expressed mRNA in the presence of chemical substance/The level of expressed mRNA in the absence of chemical substance (yeast gene YPL087W, incubated two hours with chemical substance): 7.3
The level of expressed mRNA in the presence of chemical substance/The level of expressed mRNA in the absence of chemical substance (yeast gene YPL196W, incubated two hours with chemical substance): 1.7
The level of expressed mRNA in the presence of chemical substance/The level of expressed mRNA in the absence of chemical substance (yeast gene YPL206C, incubated two hours with chemical substance): 1.9
The level of expressed mRNA in the presence of chemical substance/The level of expressed mRNA in the absence of chemical substance (yeast gene YPL222W, incubated two hours with chemical substance): 1.3
The level of expressed mRNA in the presence of chemical substance/The level of expressed mRNA in the absence of chemical substance (yeast gene YPR023C, incubated two hours with chemical substance): 0.8
The level of expressed mRNA in the presence of chemical substance/The level of expressed mRNA in the absence of chemical substance (yeast gene YPR151C, incubated two hours with chemical substance): 4.1
